Assay results: patent US10294229B2, “Heteroaryl substituted aminopyridine compounds” (BRISTOL-MYERS SQUIBB COMPANY, priority 2015, dated 2019)

Columns and labels:
[1] = test system: Human whole blood stimulated with a TLR2 agonist (lipoteichoic acid), IL-6 levels; test: IRAK4 Whole Blood Assay; assay type: cell-based; conditions: Homo sapiens, lipoteichoic acid 10 μg/mL
In short: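 IL-6 was quantified by cytometric bead assay in supernatants of human blood (ACD-A) stimulated for 5 h with lipoteichoic acid at 10 μg/mL final. Compound exposure preceded stimulation for 60 min at 37 °C, 5% CO2.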

[2] = Caco-2 Permeability Assay; assay type: in vitro ADME; conditions: human, Caco-2, test compound 3 μM
In short: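 Bidirectional permeability measured over 2 h at 37° C, compound dosed at 3 μM in the donor compartment (apical for absorptive, basolateral for secretive) with plain buffer as receiver.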

IRAK4 = IRAK4 (Homo sapiens (Human), UniProt Q9NWZ3); test: IRAK4 Inhibition Assay; assay type: biochemical; conditions: ATP 500 μM; IRAK4 0.6 nM
In short: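 Mobility-shift kinase assay: 0.6 nM IRAK4, 500 μM ATP, 1.5 μM fluorescent peptide, 60 min, room temperature. Percent inhibition was normalised between enzyme-free and DMSO-only wells.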

Chain of IRAK4 (Q9NWZ3 whole entry, species assumed): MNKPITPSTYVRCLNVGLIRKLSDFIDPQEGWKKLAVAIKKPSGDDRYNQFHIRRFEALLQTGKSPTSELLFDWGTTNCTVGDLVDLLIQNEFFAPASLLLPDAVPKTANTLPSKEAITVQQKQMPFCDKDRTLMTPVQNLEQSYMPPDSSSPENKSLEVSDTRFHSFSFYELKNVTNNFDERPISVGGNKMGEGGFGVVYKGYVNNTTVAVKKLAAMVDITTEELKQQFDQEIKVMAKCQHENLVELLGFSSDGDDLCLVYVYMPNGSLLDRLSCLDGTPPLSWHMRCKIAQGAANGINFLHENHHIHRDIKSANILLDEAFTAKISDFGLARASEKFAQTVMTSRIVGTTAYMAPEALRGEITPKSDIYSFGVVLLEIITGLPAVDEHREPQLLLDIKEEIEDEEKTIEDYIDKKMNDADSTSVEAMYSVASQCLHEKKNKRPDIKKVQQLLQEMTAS

| EC50 [1] [nM] | Papp at 2 h, 3 µM [2] [×10⁻⁶ cm/s] | IC50 (IRAK4) [nM] | SMILES |
| --- | --- | --- | --- |
| 900 | 7.8 | 14 | CC(C)Nc1cc(-n2ncc3cc(C#N)cnc32)ncc1-c1cn(CC(C)(C)O)nn1 [Example 63, 1-(5-(1-(2-hydroxy-2-methylpropyl)-1H-1,2,3-triazol-4-yl)-4-(isopropylamino)pyridin-2-yl)-1H-pyrazolo[3,4-b]pyridine-5-carbonitrile] |
| 310 | 6.9 | 5 | CC(C)Nc1cc(-n2ncc3cc(C#N)cnc32)ncc1-c1cn(C[C@H](O)c2ccccc2)nn1 [Example 85, (R)-1-(5-(1-(2-hydroxy-2-phenylethyl)-1H-1,2,3-triazol-4-yl)-4-(isopropylamino)pyridin-2-yl)-1H-pyrazolo[3,4-b]pyridine-5-carbonitrile] |
| 1440 | < 1.5 | 8 | CC(C)Nc1cc(-n2ncc3cc(C#N)c(N)nc32)ncc1-c1cn(CC(C)(C)O)nn1 [Example 97, 6-amino-1-(5-(1-(2-hydroxy-2-methylpropyl)-1H-1,2,3-triazol-4-yl)-4-(isopropylamino)pyridin-2-yl)-1H-pyrazolo[3,4-b]pyridine-5-carbonitrile] |
| 1110 | < 1.5 | 4 | Cc1n[nH]c(C)c1CCn1cc(-c2cnc(-n3ncc4cc(C#N)cnc43)cc2NC(C)C)nn1 [Example 102, 1-(5-(1-(2-(3,5-dimethyl-1H-pyrazol-4-yl)ethyl)-1H-1,2,3-triazol-4-yl)-4-(isopropylamino)pyridin-2-yl)-1H-pyrazolo[3,4-b]pyridine-5-carbonitrile] |
| 1190 | 10.1 | 4 | CC(C)Nc1cc(-n2ncc3cc(C#N)cnc32)ncc1-c1cn(CC2CCC2)nn1 [Example 117, 1-(5-(1-(cyclobutylmethyl)-1H-1,2,3-triazol-4-yl)-4-(isopropylamino)pyridin-2-yl)-1H-pyrazolo[3,4-b]pyridine-5-carbonitrile] |
| 430 | 5 | 2 | CC(C)Nc1cc(-n2ncc3cc(C#N)cnc32)ncc1-c1cn(CCc2cccnc2)nn1 [Example 119, 1-(4-(isopropylamino)-5-(1-(2-(pyridin-3-yl)ethyl)-1H-1,2,3-triazol-4-yl)pyridin-2-yl)-1H-pyrazolo[3,4-b]pyridine-5-carbonitrile] |
| 200 | 7.4 | 1 | CC(C)Nc1cc(-n2ncc3cc(C#N)cnc32)ncc1-c1cn(CCc2ccncc2)nn1 [Example 120, 1-(4-(isopropylamino)-5-(1-(2-(pyridin-4-yl)ethyl)-1H-1,2,3-triazol-4-yl)pyridin-2-yl)-1H-pyrazolo[3,4-b]pyridine-5-carbonitrile] |
| 590 | 32.2 | 6 | CCOCCn1cc(-c2cnc(-n3ncc4cc(C#N)cnc43)cc2NC(C)C)nn1 [Example 122, 1-(5-(1-(2-ethoxyethyl)-1H-1,2,3-triazol-4-yl)-4-(isopropylamino)pyridin-2-yl)-1H-pyrazolo[3,4-b]pyridine-5-carbonitrile] |
| 240 | 24.4 | 5 | CC(C)Nc1cc(-n2ncc3cc(C#N)cnc32)ncc1-c1cn(CC2CCO2)nn1 (stereo not drawn) [Example 123, 1-(4-(isopropylamino)-5-(1-(oxetan-2-ylmethyl)-1H-1,2,3-triazol-4-yl)pyridin-2-yl)-1H-pyrazolo[3,4-b]pyridine-5-carbonitrile] |
| 290 | 2.9 | 2 | CC(C)Nc1cc(-n2ncc3cc(C#N)cnc32)ncc1-c1cn(CCCCO)nn1 [Example 124, 1-(5-(1-(4-hydroxybutyl)-1H-1,2,3-triazol-4-yl)-4-(isopropylamino)pyridin-2-yl)-1H-pyrazolo[3,4-b]pyridine-5-carbonitrile] |
